Target: T1, human ACC2 (Homo sapiens, UniProt O00763)
T1 construct: made in house; host or cells: insect cells (baculoviral expression system)
Experiment: ACC2 assay, spectrophotometric 384 well assay (NADH-linked, coupled lactate dehydrogenase/pyruvate kinase)
Type: biochemical
Conditions: ACC2 assay, hACC2 construct lacking 128 N-terminal amino acids, 25° C., 340 nm; read-out: IC50
Outline: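 ADP output tracked via pyruvate kinase/lactate dehydrogenase NADH oxidation, slope at 340 nm over 15 min, 25° C, with 500 μM ATP and 200 μM each acetyl-CoA and NADH. Enzyme: insect-cell-expressed human ACC2, N-terminal 128 residues deleted; pH 7.5 Tris with citrate, KHCO3. IC50 from four-parameter regression versus vehicle and no-acetyl-CoA controls.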

T1 sequence (O00763 129-2458 limits assumed): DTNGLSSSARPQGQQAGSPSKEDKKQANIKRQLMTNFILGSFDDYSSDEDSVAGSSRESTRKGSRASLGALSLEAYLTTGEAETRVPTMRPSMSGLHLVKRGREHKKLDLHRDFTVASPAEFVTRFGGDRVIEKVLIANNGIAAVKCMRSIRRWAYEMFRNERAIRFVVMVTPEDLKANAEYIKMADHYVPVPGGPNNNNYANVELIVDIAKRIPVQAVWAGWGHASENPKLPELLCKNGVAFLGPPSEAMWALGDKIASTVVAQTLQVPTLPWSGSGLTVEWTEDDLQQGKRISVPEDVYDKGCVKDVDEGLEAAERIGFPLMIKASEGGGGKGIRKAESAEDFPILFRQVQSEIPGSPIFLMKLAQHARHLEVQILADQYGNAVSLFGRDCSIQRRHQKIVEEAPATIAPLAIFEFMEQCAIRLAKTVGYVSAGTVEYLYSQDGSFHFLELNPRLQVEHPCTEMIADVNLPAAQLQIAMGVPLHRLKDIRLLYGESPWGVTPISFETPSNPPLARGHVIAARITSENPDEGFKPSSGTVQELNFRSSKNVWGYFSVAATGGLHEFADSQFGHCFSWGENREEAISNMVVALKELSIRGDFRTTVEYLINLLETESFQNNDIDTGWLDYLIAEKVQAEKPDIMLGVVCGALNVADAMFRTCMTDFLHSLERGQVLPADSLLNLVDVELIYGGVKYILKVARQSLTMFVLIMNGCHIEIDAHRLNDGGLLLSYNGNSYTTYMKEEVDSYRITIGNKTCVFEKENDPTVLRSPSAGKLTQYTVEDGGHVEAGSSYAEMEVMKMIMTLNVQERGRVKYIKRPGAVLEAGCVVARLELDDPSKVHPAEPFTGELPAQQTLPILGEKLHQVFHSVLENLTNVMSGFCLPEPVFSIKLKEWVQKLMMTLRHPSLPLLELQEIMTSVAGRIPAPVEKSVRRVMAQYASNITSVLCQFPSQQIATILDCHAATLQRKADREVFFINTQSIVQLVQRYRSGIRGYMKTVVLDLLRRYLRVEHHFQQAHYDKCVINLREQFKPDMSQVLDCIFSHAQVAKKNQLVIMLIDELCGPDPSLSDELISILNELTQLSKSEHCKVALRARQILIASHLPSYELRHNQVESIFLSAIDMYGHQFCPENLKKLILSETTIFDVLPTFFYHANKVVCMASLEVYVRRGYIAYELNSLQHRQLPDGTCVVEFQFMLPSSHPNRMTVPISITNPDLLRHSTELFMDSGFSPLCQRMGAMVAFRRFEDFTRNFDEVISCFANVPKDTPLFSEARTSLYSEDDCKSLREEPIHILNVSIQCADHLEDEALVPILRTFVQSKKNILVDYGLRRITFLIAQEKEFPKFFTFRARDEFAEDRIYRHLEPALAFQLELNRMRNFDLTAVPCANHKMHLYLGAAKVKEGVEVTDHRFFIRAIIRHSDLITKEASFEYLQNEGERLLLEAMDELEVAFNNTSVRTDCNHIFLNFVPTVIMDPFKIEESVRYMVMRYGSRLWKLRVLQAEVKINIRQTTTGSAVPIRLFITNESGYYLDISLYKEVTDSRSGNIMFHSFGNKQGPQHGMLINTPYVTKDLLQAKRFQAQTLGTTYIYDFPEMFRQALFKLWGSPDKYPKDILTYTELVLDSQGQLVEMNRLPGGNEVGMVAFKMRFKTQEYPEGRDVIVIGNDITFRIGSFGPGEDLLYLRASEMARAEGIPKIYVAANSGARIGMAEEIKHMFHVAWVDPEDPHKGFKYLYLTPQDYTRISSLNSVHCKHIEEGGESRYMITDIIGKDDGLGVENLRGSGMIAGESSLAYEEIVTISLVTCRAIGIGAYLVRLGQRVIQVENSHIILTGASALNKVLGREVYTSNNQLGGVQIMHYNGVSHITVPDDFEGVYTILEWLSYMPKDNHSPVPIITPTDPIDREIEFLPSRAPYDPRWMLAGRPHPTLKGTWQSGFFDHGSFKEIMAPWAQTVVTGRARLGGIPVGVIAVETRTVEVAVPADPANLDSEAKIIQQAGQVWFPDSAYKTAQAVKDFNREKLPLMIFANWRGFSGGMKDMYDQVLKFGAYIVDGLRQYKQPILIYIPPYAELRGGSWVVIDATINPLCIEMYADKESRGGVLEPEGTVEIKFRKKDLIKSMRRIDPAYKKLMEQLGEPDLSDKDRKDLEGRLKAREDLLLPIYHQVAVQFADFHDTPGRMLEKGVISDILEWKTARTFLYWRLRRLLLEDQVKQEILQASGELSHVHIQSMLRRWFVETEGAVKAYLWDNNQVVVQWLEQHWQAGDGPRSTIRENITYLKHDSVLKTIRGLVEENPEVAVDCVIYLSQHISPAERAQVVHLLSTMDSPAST

Row | IC50 | Compound
1 | 180 nM | CCCOc1cc(N2CCC(c3ccc([C@H](C)NC(C)=O)cc3)CC2)ncn1 [Example 11.1]
2 | 80 nM | CC(=O)N[C@@H](C)c1ccc(C2CCN(c3cc(OC(C)C)ncn3)CC2)cc1 [Example 11.2]
3 | 250 nM | CC(=O)N[C@@H](C)c1ccc(C2CCN(c3cc(OCCC4CC4)ncn3)CC2)cc1 [Example 11.3]
4 | 450 nM | CC(=O)N[C@@H](C)c1ccc(C2CCN(c3ccnc(OCCC4CC4)n3)CC2)cc1 [Example 11.4]
5 | 200 nM | CC(=O)N[C@@H](C)c1ccc(C2CCN(c3cc(Oc4ccc(F)cc4)ncn3)CC2)cc1 [Example 11.5]
6 | 180 nM | CC(=O)N[C@@H](C)c1ccc(C2CCN(c3ccnc(Oc4ccc(F)cc4)n3)CC2)cc1 [Example 11.6]
7 | 170 nM | CC(=O)N[C@@H](C)c1ccc(C2CCN(c3cc(OC4CCCC4)ncn3)CC2)cc1 [Example 11.7]
8 | 490 nM | CC(=O)N[C@@H](C)c1ccc(C2CCN(c3ccnc(OC4CCCC4)n3)CC2)cc1 [Example 11.8]
9 | 380 nM | CC(=O)N[C@@H](C)c1ccc(C2CCN(c3ccnc(OCC4CCCC4)n3)CC2)cc1 [Example 11.9]
10 | 270 nM | CC(=O)N[C@@H](C)c1ccc(C2CCN(c3cc(OCC4CCCC4)ncn3)CC2)cc1 [Example 11.10]
11 | 820 nM | CC(=O)N[C@@H](C)c1ccc(C2CCN(c3ccnc(OCCC(C)(C)C)n3)CC2)cc1 [Example 11.11]
12 | 300 nM | CC(=O)N[C@@H](C)c1ccc(C2CCN(c3cc(OCCC(C)(C)C)ncn3)CC2)cc1 [Example 11.12]
13 | 4600 nM | CC(=O)N[C@@H](C)c1ccc(C2CCN(c3ccnc(OCCc4ccccc4)n3)CC2)cc1 [Example 11.13]
14 | 3500 nM | CC(=O)N[C@@H](C)c1ccc(C2CCN(c3cc(OCCc4ccccc4)ncn3)CC2)cc1 [Example 11.14]
15 | 230 nM | CC(=O)N[C@@H](C)c1ccc(C2CCN(c3cc(OCC(C)C)ncn3)CC2)cc1 [Example 11.15]
16 | 430 nM | CC(=O)N[C@@H](C)c1ccc(C2CCN(c3ccnc(OCC(C)C)n3)CC2)cc1 [Example 11.16]
17 | 1200 nM | CC(=O)N[C@@H](C)c1ccc(C2CCN(c3cc(O[C@H]4CCOC4)ncn3)CC2)cc1 [Example 11.17]
18 | 6200 nM | CC(=O)N[C@@H](C)c1ccc(C2CCN(c3ccnc(O[C@H]4CCOC4)n3)CC2)cc1 [Example 11.18]
19 | 880 nM | CC#CCOc1cc(N2CCC(c3ccc([C@H](C)NC(C)=O)cc3)CC2)ncn1 [Example 11.19]
20 | 1300 nM | CC#CCOc1nccc(N2CCC(c3ccc([C@H](C)NC(C)=O)cc3)CC2)n1 [Example 11.20]
21 | 890 nM | CCC(CC)Oc1nccc(N2CCC(c3ccc([C@H](C)NC(C)=O)cc3)CC2)n1 [Example 11.21]
22 | 820 nM | CCC(CC)Oc1cc(N2CCC(c3ccc([C@H](C)NC(C)=O)cc3)CC2)ncn1 [Example 11.22]
23 | 1500 nM | CC(=O)N[C@@H](C)c1ccc(C2CCN(c3ccnc(OCc4ccccc4)n3)CC2)cc1 [Example 11.23]
24 | 370 nM | CC(=O)N[C@@H](C)c1ccc(C2CCN(c3cc(OCc4ccccc4)ncn3)CC2)cc1 [Example 11.24]
25 | 240 nM | CC(=O)N[C@@H](C)c1ccc(C2CCN(c3cc(Oc4ccccc4F)ncn3)CC2)cc1 [Example 11.25]

Row | IC50 | Compound
26 | 380 nM | CC(=O)N[C@@H](C)c1ccc(C2CCN(c3ccnc(Oc4ccccc4F)n3)CC2)cc1 [Example 11.26]
27 | 300 nM | CC(=O)N[C@@H](C)c1ccc(C2CCN(c3cc(Oc4cccc(F)c4)ncn3)CC2)cc1 [Example 11.27]
28 | 350 nM | CC(=O)N[C@@H](C)c1ccc(C2CCN(c3ccnc(Oc4cccc(F)c4)n3)CC2)cc1 [Example 11.28]
29 | 3800 nM | COCCOc1cc(N2CCC(c3ccc([C@H](C)NC(C)=O)cc3)CC2)ncn1 [Example 11.29]
30 | 8400 nM | COCCOc1nccc(N2CCC(c3ccc([C@H](C)NC(C)=O)cc3)CC2)n1 [Example 11.30]
31 | 690 nM | COc1cccc(Oc2cc(N3CCC(c4ccc([C@H](C)NC(C)=O)cc4)CC3)ncn2)c1 [Example 11.31]
32 | 1100 nM | COc1cccc(Oc2nccc(N3CCC(c4ccc([C@H](C)NC(C)=O)cc4)CC3)n2)c1 [Example 11.32]
33 | 590 nM | CC(=O)N[C@@H](C)c1ccc(C2CCN(c3cc(OCc4cccnc4)ncn3)CC2)cc1 [Example 11.33]
34 | 23200 nM | CC(=O)N[C@@H](C)c1ccc(C2CCN(c3ccnc(OCc4cccnc4)n3)CC2)cc1 [Example 11.34]
35 | 710 nM | CC(=O)N[C@@H](C)c1ccc(C2CCN(c3cc(OCC4(C#N)CC4)ncn3)CC2)cc1 [Example 11.35]
36 | 580 nM | CCOc1cc(N2CCC(c3ccc([C@H](C)NC(C)=O)cc3)CC2)ncn1 [Example 11.36]
37 | 930 nM | CCOc1nccc(N2CCC(c3ccc([C@H](C)NC(C)=O)cc3)CC2)n1 [Example 11.37]
38 | 560 nM | CC(=O)N[C@@H](C)c1ccc(C2CCN(c3ccnc(OC(C)C)n3)CC2)cc1 [Example 11.38]
39 | 6600 nM | CC(=O)N[C@@H](C)c1ccc(C2CCN(c3ccnc(NC(C)c4ccccc4)n3)CC2)cc1 (some centres unmarked) [Example 11.39]
40 | 8100 nM | CC(=O)N[C@@H](C)c1ccc(C2CCN(c3cc(NC(C)c4ccccc4)ncn3)CC2)cc1 (some centres unmarked) [Example 11.40]
41 | 3100 nM | CCCNc1nccc(N2CCC(c3ccc([C@H](C)NC(C)=O)cc3)CC2)n1 [Example 11.41]
42 | 7100 nM | CCCNc1cc(N2CCC(c3ccc([C@H](C)NC(C)=O)cc3)CC2)ncn1 [Example 11.42]
43 | 3300 nM | CC(=O)N[C@@H](C)c1ccc(C2CCN(c3ccnc(NC(C)C)n3)CC2)cc1 [Example 11.43]
44 | 5000 nM | CC(=O)N[C@@H](C)c1ccc(C2CCN(c3cc(NC(C)C)ncn3)CC2)cc1 [Example 11.44]
45 | 1500 nM | CC(=O)N[C@@H](C)c1ccc(C2CCN(c3ccnc(NC4CCC4)n3)CC2)cc1 [Example 11.45]
46 | 2800 nM | CC(=O)N[C@@H](C)c1ccc(C2CCN(c3cc(NC4CCC4)ncn3)CC2)cc1 [Example 11.46]
47 | 540 nM | CC(=O)N[C@@H](C)c1ccc(C2CCN(c3ccnc(N(C)C(C)C)n3)CC2)cc1 [Example 11.47]
48 | 580 nM | CC(=O)N[C@@H](C)c1ccc(C2CCN(c3cc(N(C)C(C)C)ncn3)CC2)cc1 [Example 11.48]
49 | 350 nM | CC(=O)N[C@@H](C)c1ccc(C2CCN(c3ccnc(N4CCc5ccccc54)n3)CC2)cc1 [Example 11.49]

More lines, now with the values behind:

Row | Compound | IC50
50 | CCOc1ccc(-c2cnc(N3CCC(c4ccc([C@H](C)NC(C)=O)cc4)CC3)nc2)cc1C [Example 10.125] | 640 nM
51 | CC(=O)N[C@@H](C)c1ccc(C2CCN(c3ncc(-c4ccc(OC(C)C)c(C)c4)cn3)CC2)cc1 [Example 10.126] | 1300 nM
52 | COc1cc(C)c(-c2cnc(N3CCC(c4ccc([C@H](C)NC(C)=O)cc4)CC3)nc2)cc1C [Example 10.127] | 1600 nM
53 | COc1cc(-c2cnc(N3CCC(c4ccc([C@H](C)NC(C)=O)cc4)CC3)nc2)ccc1C#N [Example 10.128] | 140 nM
54 | CC(=O)N[C@@H](C)c1ccc(C2CCN(c3ncc(-c4ccc(C)cc4F)cn3)CC2)cc1 [Example 10.129] | 340 nM
55 | CC(=O)N[C@@H](C)c1ccc(C2CCN(c3ncc(-c4cccs4)cn3)CC2)cc1 [Example 10.130] | 40 nM
56 | CC(=O)N[C@@H](C)c1ccc(C2CCN(c3ncc(CC(C)C)cn3)CC2)cc1 [Example 10.201] | 340 nM
57 | CC(=O)N[C@@H](C)c1ccc(C2CCN(c3ncc(C4CC4)cn3)CC2)cc1 [Example 10.202] | 570 nM
58 | CC(=O)N[C@@H](C)c1ccc(C2CCN(c3ncc(-c4ccccn4)cn3)CC2)cc1 [Example 10.203] | 160 nM
59 | COc1cc(C)c(-c2cnc(N3CCC(c4ccc([C@H](C)NC(C)=O)cc4)CC3)nc2)c(C)c1 [Example 10.204] | 350 nM
60 | CC(=O)N[C@@H](C)c1ccc(C2CCN(c3ccc(-c4ccc5[nH]ccc5c4)cn3)CC2)cc1 [Example 10.301] | 320 nM
61 | CC(=O)N[C@@H](C)c1ccc(C2CCN(c3ncc(-c4ccc5[nH]ccc5c4)cc3F)CC2)cc1 [Example 10.302] | 430 nM
62 | CC(=O)N[C@@H](C)c1ccc(C2CCN(c3nccc(C4CC4)c3C)CC2)cc1 [Example 10.303] | 160 nM
63 | CC(=O)N[C@@H](C)c1ccc(C2CCN(c3ccc(C4CC4)cn3)CC2)cc1 [Example 10.304] | 750 nM
64 | CC(=O)N[C@@H](C)c1ccc(C2CCN(c3ncc(C4CC4)cc3F)CC2)cc1 [Example 10.305] | 460 nM
65 | CCOc1cccc(-c2ccc(N3CCC(c4ccc([C@H](C)NC(C)=O)cc4)CC3)nc2)c1 [Example 10.306] | 310 nM
66 | CCOc1cccc(-c2cnc(N3CCC(c4ccc([C@H](C)NC(C)=O)cc4)CC3)c(F)c2)c1 [Example 10.307] | 310 nM
67 | CC(=O)N[C@@H](C)c1ccc(C2CCN(c3ccc(-c4ccc(C#N)s4)cn3)CC2)cc1 [Example 10.308] | 80 nM
68 | CC(=O)N[C@@H](C)c1ccc(C2CCN(c3ncc(-c4ccc(C#N)s4)cc3F)CC2)cc1 [Example 10.309] | 80 nM
69 | CC(=O)N[C@@H](C)c1ccc(C2CCN(c3ccc(-c4ccc(F)cc4)cn3)CC2)cc1 [Example 10.310] | 40 nM
70 | CC(=O)N[C@@H](C)c1ccc(C2CCN(c3ncc(-c4ccc(F)cc4)cc3F)CC2)cc1 [Example 10.311] | 180 nM
71 | CC(=O)N[C@@H](C)c1ccc(C2CCN(c3ccc(-c4ccc5c(c4)OCO5)cn3)CC2)cc1 [Example 10.312] | 160 nM
72 | CC(=O)N[C@@H](C)c1ccc(C2CCN(c3ncc(-c4ccc5c(c4)OCO5)cc3F)CC2)cc1 [Example 10.313] | 120 nM
73 | CC(=O)N[C@@H](C)c1ccc(C2CCN(c3ccc(-c4ccc(C)cc4)cn3)CC2)cc1 [Example 10.314] | 280 nM
74 | CC(=O)N[C@@H](C)c1ccc(C2CCN(c3ncc(-c4ccc(C)cc4)cc3F)CC2)cc1 [Example 10.315] | 120 nM

— patent US9006450B2 (Boehringer Ingelheim International GmbH, priority 2010, dated 2015)
